Data on four molecules can be found in paper PMC3344892, “NAD-Independent L-Lactate Dehydrogenase Is Required for L-Lactate Utilization in Pseudomonas stutzeri SDM” (PLoS ONE, 2012).

Series [1] has as its target T1, L-iLDH (NAD-independent L-lactate dehydrogenase) from P. stutzeri SDM (Stutzerimonas stutzeri, UniProt I1SLB1).
T1 construct: gene lldD; full-length lldD in pETDuet-1 (HindIII/XhoI), expressed in E. coli C43(DE3), HisTrap purified (tag not described); also purified natively from membrane with Triton X-100; one FMN per subunit
T1 sequence (I1SLB1 1-391): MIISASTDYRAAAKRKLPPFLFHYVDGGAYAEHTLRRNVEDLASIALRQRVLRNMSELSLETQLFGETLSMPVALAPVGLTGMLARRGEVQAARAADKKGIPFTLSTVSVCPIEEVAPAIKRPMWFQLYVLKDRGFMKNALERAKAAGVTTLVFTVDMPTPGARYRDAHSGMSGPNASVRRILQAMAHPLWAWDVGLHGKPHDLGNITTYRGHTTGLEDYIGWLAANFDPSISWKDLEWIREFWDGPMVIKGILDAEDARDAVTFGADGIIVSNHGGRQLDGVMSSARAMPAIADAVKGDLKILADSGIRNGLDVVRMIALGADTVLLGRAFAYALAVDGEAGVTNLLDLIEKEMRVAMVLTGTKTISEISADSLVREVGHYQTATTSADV
Nature of the series: HPLC of flavin released by boiling; UV-visible spectrum. Type of series: binding. The conditions noted are these: native enzyme purified from membrane; recombinant enzyme similar; one FMN per subunit.

Series [2] has as its target T1, L-iLDH (NAD-independent L-lactate dehydrogenase) from P. stutzeri SDM. Nature of the series: MTT reduction at […] nm, double-reciprocal plots. Type of series: biochemical.
Substrate in series [3]: C[C@H](O)C(=O)O
Nature of the series: purified protein. It is filed as biochemical, Stutzerimonas stutzeri. The conditions noted are these: apparent, fixed 0.2 mM MTT as electron acceptor, 50 mM Tris-HCl pH 7.5, 30°C.

Substrate in series [4]: CC[C@H](O)C(=O)O
Nature of the series: purified protein. It is filed as biochemical, Stutzerimonas stutzeri. The conditions noted are these: apparent, fixed 0.2 mM MTT as electron acceptor, 50 mM Tris-HCl pH 7.5, 30°C.

Take `Cc1cc2nc3c(=O)[nH]c(=O)nc-3n(C[C@H](O)[C@H](O)[C@H](O)COP(=O)(O)O)c2cc1C` [FMN]: the “HPLC of flavin released by boiling; UV-visible spectrum” value in series [1] is given as “the native enzyme contains one FMN per subunit”.

In series [2], `O=C(O)C(=O)O` [oxalate] registered a Ki of 1.9 ± 0.1 mM.

`NC(=O)C(=O)O` [oxamate] displayed a Ki in series [2] of 29 ± 1.7 mM. This Ki lies about 15-fold higher than the previous one.

B1: L-iLDH (NAD-independent L-lactate dehydrogenase) from P. stutzeri SDM (Stutzerimonas stutzeri) (protein)
chain: T1 sequence (I1SLB1 1-391)
notes: full-length lldD in pETDuet-1 (HindIII/XhoI), expressed in E. coli C43(DE3), HisTrap purified (tag not described); also purified natively from membrane with Triton X-100; one FMN per subunit
For the molecule B1, the Km in the series “purified protein [3]” came to 29 ± 0.65 µM; in the series “purified protein [4]”, 99 ± 3.9 µM.
